Entries after “also recorded” stand apart in the source; their conditions may differ.
Key:
Assay type in all cases: cell-based, human
[1] = tested on: Normal cells (PBMC, HUVEC, and WI-38); test: Cancer cell selective growth inhibition (cancer cells vs normal cells); conditions: 72 hr MTS
Procedure: […] Peripheral blood mononuclear cells (PBMCs) were voluntarily collected from a healthy laboratory worker by standard sterile phlebotomy techniques and isolated using Vacutainer CPT collection tubes (BD Biosciences—Bedford, Mass.). PBMCs were isolated freshly for each experiment. All DMEM and RPMI-1640 media was supplemented with 10% FBS (Atlanta Biologicals—Lawrenceville, Ga.) and 100 U/mL penicillin and streptomycin (Invitrogen). HUVEC (Human umbilical vein endothelial cells) were cultured in EGM-2 media with supplements provided in the manufacturers BulletKit (Lonza—Walersville, Md.). All cells were maintained at 37° C. and in a 5% CO2 atmosphere.
Growth Inhibition Assays: HeLa, MDA-MB-231, PC-3M, WI-38, and HUVEC cells were plated at 5,000 cells per well in 96 well plates and allowed to attach for 20 hr (8 hr for HeLa). The media was removed and 198 μL of fresh media was added to each well. […] PBMCs were isolated and plated at 100,000 per well in 96 well plates with a volume of 197 μL. They were allowed to settle in the media for 20 hr, at which point 1 μL of 1 mg/mL phytohemagglutinin (Sigma—St. Loius Mo.) in PBS was added to stimulate proliferation (final concentration of 5 μg/mL). […] Cell proliferation was measured at t=0 (time at start of treatment) and t=72 hr using MTS AQueous non-radioactive proliferation assay (Promega—Madison, Wis.). This assay utilizes the metabolic conversion of yellow tetrazolium to a purple formazan by live cells and the color change is proportional to the number of cells. […] The absorbance at 490 nm in each well was read with a Spectramax 250 plate reader (Molecular Devices—Sunnyvale, Calif.). […] Data were fit to one site dose response curves in order to obtain specific growth inhibitory concentrations and the relative standard errors of the mean for these concentrations were calculated by the XLfit4 software. Statistical significance (p value) for the selectivity and all subsequent assays was determined with the two tailed homoscedastic Student's t-test. […]

[2] = tested on: HeLa cells; test: Transwell invasion assay; conditions: [GI99%], matrigel, 20 hr
Procedure: Transwell Invasion Assay: HeLa cells were plated at 250,000 per 35 mm well and allowed to attach for 8 hr. The cells were washed with PBS and then treated for 4 hr with the [GI99%] of each compound (or 1% DMSO—vehicle control) in serum free media to decrease the number of invading cells in the beginning of the experiment due to a preliminary lack of drug exposure. The cells were then trypsinized and counted by trypan blue exclusion with a hemacytometer (Sigma—St. Louis, Mo.). Eight micron pore size control well inserts for 12 well plates (BD Biosciences) were coated with 100 μL 1 mg/mL matrigel (Sigma—St. Louis, Mo.) and allowed to solidify at room temperature for 1 hr. The excess matrigel was aspirated and the inserts were gently washed with PBS. The cells were seeded at a density of 300,000 per insert well in a volume of 500 μL serum free media containing a derivative or vehicle. The inserts were then placed in wells containing 700 μL serum free media with the respective compound. After 20 hr the cells on the top of the membranes were gently removed with a cotton swab, the membranes then were fixed in methanol for 1 min, stained in Gills No. 3 Hematoxylin (Sigma—St. Louis, Mo.) for 5 min, rinsed in tap water, and allowed to dry overnight. The membranes were excised, mounted on slides, and the cells were counted under the 40× objective of a bright field microscope. The data are expressed as the average total number of invading cells counted in 20 fields of each membrane, as standardized to the vehicle control, from six experiments.
Effect of derivatives on the malignant phenotype—invasion assay: If A1-A9 have differential targets, DNA binding specificity, or downstream effects they may differentially alter the malignant behavior of cells. Also, anti-cancer compounds can be efficacious against tumors in other ways besides inhibiting growth and inducing death of cancer cells; they can also alter the behavior of malignant cells. Therefore, the ability of A1-A9 and amonafide to alter the invasive behavior of cancer cells in a transwell (also known as Boyden chamber) invasion assay was evaluated, which determines the ability of cells to migrate through a proteinacious gel. This behavior is considered to be representative of cancer cell invasion through the basement membrane of the primary tumor environment. In this assay, treated cells are seeded on to the top of the matrigel-coated porous membrane, allowed to invade through the proteinacious gel onto the underside of the membrane, and then counted.

[3] = tested on: HeLa cells; test: Perinucleolar compartment (PNC) prevalence reduction; conditions: for PNC prevalence reduction at [GI50%]: [GI50%] for 72 hr
Procedure: Perinucleolar Compartment (PNC) Reduction: HeLa cells (PNC prevalence ˜85%) were plated 5,000/well in glass bottom 96 well plates and allowed to attach for 8 hr. The cells were then treated with compounds at the respective [GI50%] for 72 hr and [GI99%] for 20 hr for each compound (total media volume was 200 μL/well with 1% DMSO). After treatment cells were immunofluorescently stained as previously described, but with a Texas Red labeled secondary antibody (Jackson) instead of a FITC labeled secondary antibody. PNC prevalence (% of non-apoptotic/non-mitotic cells with 1 or more PNCs) was determined by scoring >200 cells per well with fluorescent microscope (60× objective) and images were acquired with the digital camera and image acquisition software previously mentioned. Scale bar=10 μm. Data are expressed as the average PNC prevalence (% control) of three individual experiments.
The PNC is a unique structural marker that it is only found in malignantly transformed cancer cells, irrespective of tissue origin, and indicates cells that are capable of metastasis. […] Previous studies indicate that the PNC likely conveys a functional metastatic advantage to cancer cells. The PNC prevalence (% of cells with one or more PNC) in human breast cancer positively correlates with the progression of the disease and is always near 100% in distant metastases. […] The PNC prevalence reduction was determined for amonafide and A1-A9 at the respective [GI50%] and [GI99%] doses in HeLa cells, which have a high PNC prevalence of ˜85%.

Structure (SMILES)	cancer cell selective growth inhibition (selectivity) [1]	invasive behavior (% invading cells vs vehicle) [2]	PNC prevalence reduction at [GI50%] [3]	PNC prevalence reduction at [GI99%] ([3]; [GI99%] for 20 hr)
CN(C)CCN1C(=O)c2cccc3c(N)ccc(c23)C1=O [A1, 6-amino-2-[2-(dimethylamino)ethyl]-1H-benz[de]isoquinoline-1,3(2H)-dione]	near identical to amonafide	did not significantly alter the invasive behavior of HeLa cells compared to the control	able effectively reduce the PNC; also recorded: can significantly reduce PNC prevalence	–
CN(C)CCN1C(=O)c2cccc3cc(N)cc(c23)C1=O [amonafide, reference compound]	slightly more potent (but not with statistical significance) or equally potent at inhibiting the growth of cancer cells over normal cells	did not significantly alter the invasive behavior of HeLa cells compared to the control	able effectively reduce the PNC; also recorded: can significantly reduce PNC prevalence	able to greatly reduce the PNC prevalence

From US9878984B2, “Anti-cancer compounds” (NORTHWESTERN UNIVERSITY, priority 2008, dated 2018)
